Reference: patent publication US11186617B2, “Epitope” (HOYU CO., LTD., priority 2017, dated 2021)
“Also recorded” adds a separate entry of the source.

Legend:
[1] = tested on: IgE antibody from the patient; assay: Epitope mapping (3): alanine scanning ELISA, patient serum; type: binding, human; conditions: alanine-substituted peptides; serum from patient 1; FIG. 3
Description: (§1) The amino acid sequence of SEQ ID NO: 22 and the amino acid sequence of SEQ ID NO: 29 identified in the above-mentioned (B) were subjected to a technique referred to as alanine scanning (Non Patent Literature 1). Specifically, a library of peptide fragments was prepared by a technique similar to that described above in (B), in which the peptide fragments were produced by substituting one amino acid at a time with alanine in each amino acid sequence of […], starting from the amino acid at an amino terminal side. Then, a technique similar to that described above in (B) was used to measure whether each peptide fragment was bound by the IgE antibody in the serum from a patient and a healthy subject, or not. When alanine substitution of an amino acid at a certain position led to loss or reduction of binding activity to the IgE antibody from the patient and development of binding activity to the IgE antibody from the healthy subject, the amino acid was determined to be an amino acid important for expression of inherent antigenicity or an amino acid affecting expression of inherent antigenicity. […] A common sequence important for expression of inherent antigenicity was discovered by this analysis.
(§2) The result of alanine scanning performed on the amino acid sequence of SEQ ID NO: 22 and the result of alanine scanning performed on the amino acid sequence of SEQ ID NO: 29 are shown in FIG. 3, respectively.

[2] = tested on: IgE antibody from the healthy subject; assay: Epitope mapping (3): alanine scanning ELISA, healthy subject serum; type: binding, human; conditions: alanine-substituted peptides; sera from healthy individuals 1 and 2; FIG. 3
Description: as §1, §2

[3] = tested on: anti-human IgE antibody as a secondary antibody; assay: Epitope mapping (3): alanine scanning ELISA, secondary antibody used alone; type: binding; conditions: alanine-substituted peptides, FIG. 3
From the text: FIG. 3 is a diagram showing the result of investigation of positions important for exerting antigenicity in SEQ ID NOs: 22 and 29 by an alanine scanning technique. The number on the horizontal axis denotes a value of coloration intensity at 450 nm measured by an absorption spectrometer (Abs.). In this figure, a double wavy line denotes that a value is not shown, P1 denotes that the serum from patient 1 was used, N1 and N2 denote that the sera from healthy individuals 1 and 2 were used, and 2nd denotes that an anti-human IgE antibody as a secondary antibody was used alone.
as §1, §2

[4] = tested on: IgE antibody in the serum from a patient; assay: Epitope mapping (2): overlapping peptide library, ELISA; type: binding, human; conditions: overlapping peptide fragments, 10 amino acids in length; 10 μg/ml biotin-bound peptide; 2% serum from patient 1; FIG. 2
Description: Based on the sequences (SEQ ID NOs: 6 and 13) of the peptides to which the IgE antibody in the serum bound in a manner specific to a patient in the above (A), a library of overlapping peptide fragments (10 amino acids in length) was prepared. The library was prepared using the sequences where sequences of the previous sequence and the next sequence of the aforementioned peptides in the full-length amino acid sequence of ω-5 gliadin from bread wheat (SEQ ID NO: 51) were added to the aforementioned peptides, and epitope mapping was performed.
Each synthesized peptide was shifted by one amino acid. In other words, each peptide overlaps with the previous peptide and the next peptide, each by 9 amino acids.
The target peptide was synthesized on the amino-modified resin in a 96-well plate by a method similar to that described above for (A). Biotin was bound to the amino terminus of the synthesized target peptide, with the biotin and the peptide sandwiching amino caproic acid derived from Fmoc-Acp(6)-OH as a spacer.
Said library was used to measure whether each peptide fragment is bound by the IgE antibody in the serum from a patient due to an antigen-antibody reaction, or not, and identify a sequence common to the peptides bound by the IgE antibody from the patient, thereby determining a peptide having the shortest amino acid sequence that serves as an epitope. Measurement was performed by an ELISA method in accordance with the following procedures.
(1) 10 μg/ml biotin-bound peptide of the library was prepared in PBST solution and was shaken in an avidin-coated ELISA plate for one hour at room temperature.
(2) The plate was washed with PBST solution.
(3) The plate was shaken in PBST solution with 1% skimmed milk for one hour at room temperature.
(4) The plate was shaken in PBST solution with 2% serum and 1% skimmed milk for one hour at room temperature.
(5) The plate was washed with PBST solution.
(6) Anti-human IgE antibody-HRP (1:10,000, PBST solution with 1% skimmed milk) was added and the plate was shaken for one hour at room temperature.
(7) The plate was washed with PBST solution.
(8) 20 μl of TMB ELISA (manufactured by Thermo Fisher Scientific) was added and the plate was shaken for 15 minutes at room temperature.
(9) 20 μl of 2 M sulfuric acid was added to quench an enzymatic reaction.
(10) An absorbance at 450 nm was measured.
(SEQ ID NO: 15), a subsequence of ω-5 gliadin from bread wheat, was measured by the overlapping technique in the library prepared based on SEQ ID NO: 6 and the obtained result is shown in FIG. 2. […] (SEQ ID NO: 23), a subsequence of ω-5 gliadin from bread wheat, was measured by the overlapping technique in the library prepared based on SEQ ID NO: 13 and the obtained result is shown in FIG. 2.

| Substance | binding activity to the IgE antibody from the patient (absorbance at 450 nm) [1] | binding activity to the IgE antibody from the healthy subject (absorbance at 450 nm) [2] | binding activity to the anti-human IgE antibody as the secondary antibody (absorbance at 450 nm) [3] | binding with the IgE antibody from the patient (absorbance at 450 nm) [4] |
| --- | --- | --- | --- | --- |
| SEQ ID NO: 31: amino acid at position 6 in SEQ ID NO: 22 substituted with alanine (QQFPQQEFPQAQQFP; modified epitope) | slightly reduced binding activity | developed a relatively low level of binding activity | developed a relatively low level of binding activity |  |
| SEQ ID NO: 35: amino acid at position 1 in SEQ ID NO: 22 substituted with alanine (QQFPQAEFPQQQQFP; modified epitope) | slightly reduced binding activity | developed a relatively low level of binding activity | developed a relatively low level of binding activity |  |
| SEQ ID NO: 21: overlapping 10-amino-acid peptide fragment from SEQ ID NO: 15 library (QFPQQEFPQQ; epitope candidate) |  |  |  | no binding |
| SEQ ID NO: 20: overlapping 10-amino-acid peptide fragment from SEQ ID NO: 15 library, contains SEQ ID NO: 22 (FPQQEFPQQQ; epitope candidate) |  |  |  | strong binding |
| SEQ ID NO: 30: amino acid at position 7 in SEQ ID NO: 22 substituted with alanine (QQFPQQEFPQQAQFP; modified epitope) | lost or reduced |  | developed binding activity |  |
| SEQ ID NO: 14: amino acid at position 5 in SEQ ID NO: 29 substituted with alanine (PQQQAPQQHQFPQQQ; epitope) | retained binding activity; also recorded: substantially increased binding activity | did not develop binding activity |  |  |
| SEQ ID NO: 41: amino acid at position 2 in SEQ ID NO: 29 substituted with alanine (PAQQPPQQHQFPQQQ; modified epitope) | a relatively low level of reduction of binding activity |  |  |  |
| SEQ ID NO: 42: amino acid at position 1 in SEQ ID NO: 29 substituted with alanine (AQQQPPQQHQFPQQQ; Artificial Sequnece; modified epitope) | loss of binding activity |  |  |  |
| SEQ ID NO: 18: overlapping 10-amino-acid peptide fragment from SEQ ID NO: 15 library, contains SEQ ID NO: 22 (QQEFPQQQQF; epitope candidate) |  |  |  | strong binding |
| SEQ ID NO: 39: amino acid at position 4 in SEQ ID NO: 29 substituted with alanine (PQQAPPQQHQFPQQQ; modified epitope) | retained binding activity | did not develop binding activity |  |  |
| SEQ ID NO: 28: overlapping 10-amino-acid peptide fragment from SEQ ID NO: 23 library (QQFPQQQPPQ; epitope candidate) |  |  |  | no binding |
| SEQ ID NO: 7: amino acid at position 3 in SEQ ID NO: 22 substituted with alanine (QQFPQQEAPQQQQFP; epitope) | retained binding activity; also recorded: substantially increased binding activity | developed little binding activity | developed little binding activity |  |
| SEQ ID NO: 19: overlapping 10-amino-acid peptide fragment from SEQ ID NO: 15 library, contains SEQ ID NO: 22 (PQQEFPQQQQ; epitope candidate) |  |  |  | slightly weaker binding |
| SEQ ID NO: 33: amino acid at position 4 in SEQ ID NO: 22 substituted with alanine (QQFPQQEFAQQQQFP; modified epitope) | lost or reduced | developed binding activity |  |  |
| SEQ ID NO: 40: amino acid at position 3 in SEQ ID NO: 29 substituted with alanine (PQAQPPQQHQFPQQQ; modified epitope) | loss of binding activity |  | developed binding activity |  |
| SEQ ID NO: 27: overlapping 10-amino-acid peptide fragment from SEQ ID NO: 23 library, contains SEQ ID NO: 29 (QFPQQQPPQQ; epitope candidate) |  |  |  | slightly weaker binding |

Next, values leading:

| binding activity to the IgE antibody from the patient (absorbance at 450 nm) [1] | binding activity to the IgE antibody from the healthy subject (absorbance at 450 nm) [2] | binding activity to the anti-human IgE antibody as the secondary antibody (absorbance at 450 nm) [3] | binding with the IgE antibody from the patient (absorbance at 450 nm) [4] | Substance |
| --- | --- | --- | --- | --- |
|  |  |  | no binding | SEQ ID NO: 24: overlapping 10-amino-acid peptide fragment from SEQ ID NO: 23 library (QQQPPQQHQF; epitope candidate) |
| slightly increased binding activity | developed binding activity |  |  | SEQ ID NO: 34: amino acid at position 2 in SEQ ID NO: 22 substituted with alanine (QQFPQQAFPQQQQFP; modified epitope) |
|  |  |  | no binding | SEQ ID NO: 16: overlapping 10-amino-acid peptide fragment from SEQ ID NO: 15 library (EFPQQQQFPQ; epitope candidate) |
|  |  |  | slightly weaker binding | SEQ ID NO: 17: overlapping 10-amino-acid peptide fragment from SEQ ID NO: 15 library, contains SEQ ID NO: 22 (QEFPQQQQFP; epitope candidate) |
|  |  |  | strong binding | SEQ ID NO: 25: overlapping 10-amino-acid peptide fragment from SEQ ID NO: 23 library, contains SEQ ID NO: 29 (PQQQPPQQHQ; epitope candidate) |
|  |  |  | strong binding | SEQ ID NO: 26: overlapping 10-amino-acid peptide fragment from SEQ ID NO: 23 library, contains SEQ ID NO: 29 (FPQQQPPQQH; epitope candidate) |
